Data from publication PMC4721142, “Randomized controlled studies on the efficacy of antiarthritic agents in inhibiting cartilage degeneration and pain associated with progression of osteoarthritis in the rat” (Arthritis Research & Therapy, 2016).
Several values for one entry are separate records, joined by “and”; a condition that tells them apart may be missing. Equal entries are not always repeated.

How the values were obtained:
NF-κB = assay: TNF-α-stimulated NF-κB dual luciferase reporter assay in HeLa cells; assay type: cell-based
How it was run: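 HeLa cells transfected with NF-κB firefly luciferase and Renilla pRLuc-N3 plasmids (8:1), in triplicate; TNF-α stimulation with drug, luminescence read 5 h later by Dual-Glo. Firefly/Renilla ratio normalised to viable transfected cells, expressed as fold over cells without TNF-α or drug.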

MMT/MCLT rat model of OA = assay: MMT/MCLT trial 1 histopathology (same doses); assay type: in vivo; design: key to Tibial cartilage degeneration score, 3-zone total: sum of three tibial zone scores (each on 5-point scale); key to Total joint score w/o femur / Total joint score / Total joint score without femur: sum: cartilage degeneration scores + mean osteophyte score; conditions: for % decrease, bone score / % decrease, femoral cartilage degeneration score / % decrease, osteophyte measure / % decrease, osteophyte score / % decrease, significant degeneration width / % decrease, tibial score 3-zone total / % decrease, tibial score zone 1 / % decrease, tibial score zone 2 / % decrease, tibial score zone 3 / % decrease, total degeneration width / % decrease, total joint score / % decrease, total joint score w/o femur: vs saline group
Description: For MMT/MCLT rat knee joints, sections were cut in 200-μm steps; stained with toluidine blue (also with a right and left half per section); and similarly analyzed for cartilage degeneration, proteoglycan loss, collagen damage, and osteophyte formation. Results were averaged across the three sections for an overall semiquantitative score. Regional differences across the tibial plateau were taken into consideration by dividing each section into three zones delineated using an ocular micrometer (outside, middle, and inside). Scores were based on the percentage of area affected within the zone.
Cartilage degeneration in the tibia was scored on a 5-point scale as detailed in the Methods section of Additional file 1. The total extent of degeneration of the tibial plateau was measured (in micrometers) and included an analysis of cell loss, proteoglycan loss, and collagen damage. Significant cartilage degeneration reflecting any degeneration extending through more than 50 % of the cartilage thickness was also measured. Collagen damage across the medial tibial plateau (the most severely affected section of the two halves) was also quantified.
Osteophytes and femoral cartilage degeneration were analyzed as detailed in Additional file 1. Scoring of the osteophytes and categorization into small, medium, and large was performed using an ocular micrometer. The actual osteophyte measurement (tidemark to farthest distance point extending toward the synovium) was also recorded. The femoral cartilage degeneration score and the three-zone sum of the tibial cartilage degeneration scores (mean of three levels) were summed to create a total cartilage degeneration score. The mean osteophyte score for each joint was added to this value to create a total joint score. […]
Histopathology MMT/MCLT Model

[1] = individual animals, fluocinolone 10 μg/kg, 21 days
[2] = mean, tacrolimus 0.6 mg/kg, fluocinolone 10 μg/kg
[3] = mean, tacrolimus 0.6 mg/kg, fluocinolone 10 μg/kg, listed as fluocinolone
[4] = vs group 1, fluocinolone 10 μg/kg
[5] = tacrolimus 0.6 mg/kg, fluocinolone 10 μg/kg

In the case of `COc1ccc(C=CC(=O)Nc2ccccc2C(=O)O)cc1OC` [Tranilast, N-(3′,4′-dimethoxycinnamoyl)anthranilic acid], the “Effective range against NFkB” value (NF-κB) is reported as “None”.

`CC1(C)O[C@@H]2C[C@H]3[C@@H]4C[C@H](F)C5=CC(=O)C=C[C@]5(C)[C@@]4(F)[C@@H](O)C[C@]3(C)[C@]2(C(=O)CO)O1` [Fluocinolone, Fluocinolone Acetonide] was tested, and the Bone score (MMT/MCLT rat model of OA; [1]) was 3.00 and 2.00 and 4.00 and 1.00, the “Femoral cartilage degeneration score” value (MMT/MCLT rat model of OA; [1]) was 1.00 and 2.00 and 3.00 and 2.33 and 1.33 and the “Tibial cartilage degeneration score, 3-zone total” value (MMT/MCLT rat model of OA; [1]) was 4.67 and 5.00 and 6.33 and 7.00 and 7.67 and 5.33 and 6.00. For the same compound, the “Tibial cartilage degeneration score, zone 1” value (MMT/MCLT rat model of OA; [1]) was 3.00 and 4.33 and 3.33 and 4.67 and 4.00, the “Tibial cartilage degeneration score, zone 2” value (MMT/MCLT rat model of OA; [1]) was 1.67 and 2.00 and 1.33 and 2.33 and 2.67 and the “Tibial cartilage degeneration score, zone 3” value (MMT/MCLT rat model of OA; [1]) was 0.00 and 0.33. For the same compound, the “Tibial cartilage degeneration width, significant” value (MMT/MCLT rat model of OA; [1]) was 466.67 μm and 433.33 μm and 633.33 μm and 766.67 μm and 800.00 μm and 566.67 μm and 666.67 μm, the “Tibial cartilage degeneration width, total” value (MMT/MCLT rat model of OA; [1]) was 1400.00 μm and 1066.67 μm and 1133.33 μm and 1000.00 μm and 1600.00 μm and 1266.67 μm and 1100.00 μm and the Tibial osteophyte measure (MMT/MCLT rat model of OA; [1]) was 333.33 μm and 413.33 μm and 280.00 μm and 426.67 μm and 586.67 μm and 400.00 μm and 380.00 μm. For the same compound, the Tibial osteophyte score (MMT/MCLT rat model of OA; [1]) was 2.00 and 2.33 and 3.00 and 1.33 and 4.67 and 2.67, the Total joint score (MMT/MCLT rat model of OA; [1]) was 7.67 and 8.33 and 11.33 and 9.00 and 12.33 and 15.33 and 9.67 and 10.67 and the “Total joint score without femur” value (MMT/MCLT rat model of OA; [1]) was 6.67 and 7.33 and 9.33 and 6.00 and 10.00 and 12.33 and 8.33 and 8.67. For the same compound, the Bone score (MMT/MCLT rat model of OA; mean, low or only dose) was 2.38, the “Femoral cartilage degeneration score” value (MMT/MCLT rat model of OA; mean, low or only dose) was 1.33 and 1.33 ± 0.14 and the “Tibial cartilage degeneration score, 3-zone total” value (MMT/MCLT rat model of OA; mean, low or only dose) was 6.08. The “Tibial cartilage degeneration score, zone 1” value (MMT/MCLT rat model of OA; mean, low or only dose) was 4.17, the “Tibial cartilage degeneration score, zone 2” value (MMT/MCLT rat model of OA; mean, low or only dose) was 1.88 and the “Tibial cartilage degeneration score, zone 3” value (MMT/MCLT rat model of OA; mean, low or only dose) was 0.04. The “Tibial cartilage degeneration width, significant” value (MMT/MCLT rat model of OA; mean, low or only dose) was 608.33 µm, the “Tibial cartilage degeneration width, total” value (MMT/MCLT rat model of OA; mean, low or only dose) was 1154.17 µm and the Tibial osteophyte measure (MMT/MCLT rat model of OA; mean, low or only dose) was 455.00 µm. The Tibial osteophyte score (MMT/MCLT rat model of OA; mean, low or only dose) was 3.33, the Total joint score (MMT/MCLT rat model of OA; mean, low or only dose) was 10.75 and 10.75 ± 0.61 and the “Total joint score w/o femur” value (MMT/MCLT rat model of OA; mean, low or only dose) was 9.42. The Bone score (MMT/MCLT rat model of OA; [2]) was 2.63, the “Femoral cartilage degeneration score” value (MMT/MCLT rat model of OA; [2]) was 1.96 ± 0.77 and the “Tibial cartilage degeneration score, 3-zone total” value (MMT/MCLT rat model of OA; [2]) was 5.83. For the same compound, the “Tibial cartilage degeneration score, zone 1” value (MMT/MCLT rat model of OA; [2]) was 3.88, the “Tibial cartilage degeneration score, zone 2” value (MMT/MCLT rat model of OA; [2]) was 1.92 and the “Tibial cartilage degeneration score, zone 3” value (MMT/MCLT rat model of OA; [2]) was 0.04. For the same compound, the “Tibial cartilage degeneration width, significant” value (MMT/MCLT rat model of OA; [2]) was 595.83 μm, the “Tibial cartilage degeneration width, total” value (MMT/MCLT rat model of OA; [2]) was 1212.50 μm and the Tibial osteophyte measure (MMT/MCLT rat model of OA; [2]) was 394.17 μm. The Tibial osteophyte score (MMT/MCLT rat model of OA; [2]) was 2.75, the Total joint score (MMT/MCLT rat model of OA; [2]) was 10.54 ± 0.88 and the “Total joint score w/o femur” value (MMT/MCLT rat model of OA; [2]) was 8.58. The “Femoral cartilage degeneration score” value (MMT/MCLT rat model of OA; [3]) was 1.96, the Total joint score (MMT/MCLT rat model of OA; [3]) was 10.54 and the “% increase, area of viable cartilage matrix” value (MMT/MCLT rat model of OA; tacrolimus 0.3 mg/kg, fluocinolone 5 ug/kg) was 17%. For the same compound, the “% increase, area of viable cartilage matrix” value (MMT/MCLT rat model of OA; tacrolimus 0.6 mg/kg, fluocinolone 10 ug/kg) was 20%, the “Percentage, bone score” value (MMT/MCLT rat model of OA; [4]) was 0.19 and the “Percentage, femoral cartilage degeneration score” value (MMT/MCLT rat model of OA; [4]) was −0.07. For the same compound, the “Percentage, osteophyte measure” value (MMT/MCLT rat model of OA; [4]) was 0.23, the “Percentage, osteophyte score” value (MMT/MCLT rat model of OA; [4]) was 0.30 and the “Percentage, significant degeneration width” value (MMT/MCLT rat model of OA; [4]) was 0.18. For the same compound, the “Percentage, tibial score zone 1” value (MMT/MCLT rat model of OA; [4]) was 0.10, the “Percentage, tibial score zone 2” value (MMT/MCLT rat model of OA; [4]) was 0.13 and the “Percentage, tibial score zone 3” value (MMT/MCLT rat model of OA; [4]) was 0.00. The “Percentage, total degeneration width” value (MMT/MCLT rat model of OA; [4]) was 0.08, the “Percentage, total joint score” value (MMT/MCLT rat model of OA; [4]) was 0.14 and the “Percentage, total joint score without femur” value (MMT/MCLT rat model of OA; [4]) was 0.18. For the same compound, the “% decrease, bone score” value (MMT/MCLT rat model of OA; low or only dose) was 27%, the “% decrease, femoral cartilage degeneration score” value (MMT/MCLT rat model of OA; low or only dose) was 27% and the “% decrease, osteophyte measure” value (MMT/MCLT rat model of OA; low or only dose) was 11%. For the same compound, the “% decrease, osteophyte score” value (MMT/MCLT rat model of OA; low or only dose) was 15%, the “% decrease, significant degeneration width” value (MMT/MCLT rat model of OA; low or only dose) was 16% and the “% decrease, tibial score 3-zone total” value (MMT/MCLT rat model of OA; low or only dose) was 7%. The “% decrease, tibial score zone 1” value (MMT/MCLT rat model of OA; low or only dose) was 3%, the “% decrease, tibial score zone 2” value (MMT/MCLT rat model of OA; low or only dose) was 15% and the “% decrease, tibial score zone 3” value (MMT/MCLT rat model of OA; low or only dose) was 0%. For the same compound, the “% decrease, total degeneration width” value (MMT/MCLT rat model of OA; low or only dose) was 12%, the “% decrease, total joint score” value (MMT/MCLT rat model of OA; low or only dose) was 13% and the “% decrease, total joint score w/o femur” value (MMT/MCLT rat model of OA; low or only dose) was 10%. For the same compound, the “% decrease, bone score” value (MMT/MCLT rat model of OA; [5]) was 19%, the “% decrease, femoral cartilage degeneration score” value (MMT/MCLT rat model of OA; [5]) was -7% and the “% decrease, osteophyte measure” value (MMT/MCLT rat model of OA; [5]) was 23%. The “% decrease, osteophyte score” value (MMT/MCLT rat model of OA; [5]) was 30%, the “% decrease, significant degeneration width” value (MMT/MCLT rat model of OA; [5]) was 18% and the “% decrease, tibial score 3-zone total” value (MMT/MCLT rat model of OA; [5]) was 11%. For the same compound, the “% decrease, tibial score zone 1” value (MMT/MCLT rat model of OA; [5]) was 10%, the “% decrease, tibial score zone 2” value (MMT/MCLT rat model of OA; [5]) was 13% and the “% decrease, tibial score zone 3” value (MMT/MCLT rat model of OA; [5]) was 0%. The “% decrease, total degeneration width” value (MMT/MCLT rat model of OA; [5]) was 8%, the “% decrease, total joint score” value (MMT/MCLT rat model of OA; [5]) was 14% and the “% decrease, total joint score w/o femur” value (MMT/MCLT rat model of OA; [5]) was 18%.
